One data set has as its system IL-17A. In words: TH17 cytokine inhibition as measured by ELISA: IL-17A. The following applies: 120 h; human TH17 cells, 5 days differentiation, ELISA of supernatant. The class given is cell-based. How it is done:
(§1) Peripheral blood mononuclear cells (PBMCs) were sourced from freshly prepared leukocyte enriched plasma (buffy coat) from healthy volunteers from which PBMCs were isolated by density gradient centrifugation using Ficoll-Paque™ PLUS (GE Healthcare). Naïve CD4+ T cells were isolated using the Naïve CD4+ T cell Isolation Kit II (Miltenyi Biotec) as per manufacturer's instructions. CD4+ T cells were plated at 5×10^4 cells/well in 96 well plates pre-coated with immobilized human (h)-αCD3 antibody (eBioscience) then differentiated to TH17 cells using h-αCD28, h-αIFNγ, h-αIL4, h-IL6, h-IL23, h-IL1β, h-TGFβ1 (eBioscience) and maintained in a cell culture incubator at 37° C. with 5% CO2 in TexMACS Medium (Miltenyi Biotec) supplemented with 1% Penicillin/Streptomycin (Lonza) over 5 days.
(§2) Human CD4+ T cells were differentiated to TH17 cells as described in the presence or absence of various concentrations of compounds in a final concentration of 0.1% DMSO in TexMACS medium. Supernatants were collected and stored at −20° C. until they were to be assayed for IL-17A, IL-17F, IL-17AF, IL-21 and/or IL-22 levels as determined by Ready-Set-Go ELISA kits (eBioscience) as per manufacturer's instructions. Endpoint absorbance was read at 450 nm and 570 nm according to manufacturer's instructions (eBioscience) using a microplate reader (Perkin Elmer). The percentage of cytokine inhibition was calculated with reference to DMSO treated cells and the IC50s were determined by GraphPad Prism software and presented in the table below.
In general terms: An ELISA detects its analyte on a solid surface through an enzyme-linked reagent.

Another data set has as its system IL-17F. In words: TH17 cytokine inhibition as measured by ELISA: IL-17F. The class given is cell-based. The following applies: 120 h; human TH17 cells, 5 days differentiation, ELISA of supernatant. The procedure: as §1, §2
Another data set concerns IL-22. Kind of data set: TH17 cytokine inhibition as measured by ELISA: IL-22. The class given is cell-based. The note with it: 120 h; human TH17 cells, 5 days differentiation, ELISA of supernatant. How it is done: as §1, §2
A short description of data set [1]: TH17 cell viability (Prestoblue). The class given is cell-based. On the set-up: concentration or dose not given beside the values. The note with it: human; percentage of DMSO treated cells; read-out: % viability of compound treated TH17 cells. How it is done: as §1
Cells were assayed for viability in the presence or absence of compound using Prestoblue® Cell Viability Reagent (Life Technologies) as per manufacturer's instructions after 30 minutes incubation of TH17 cells with reagent. Absorbance was measured at 570 nm and 600 nm using a microplate reader (Perkin Elmer) and data were analyzed as per manufacturer's instructions. Cell viability was expressed as a percentage of DMSO treated cells.

A further data set deals with TH17 cells. Kind of data set: TH17 cellular proliferation (Prestoblue). The note with it: Homo sapiens, 120 h; 3 μM compound, after 5 day TH17 differentiation, relative to DMSO treated TH17 cells; read-out: % change in TH17 cell number. The class given is cell-based. How it is done:
as §1
Cellular proliferation was assessed in the presence or absence of 3 μM compound using Prestoblue® Cell Viability Reagent (Life Technologies) as per manufacturer's instructions using absorbance as the output measured by a microplate reader (Perkin Elmer) after 30 minutes of incubation of cells and reagent. A standard curve developed by plotting varying cell numbers versus absorbance was used to assess differences in cellular proliferation between compound treated or untreated cells after the 5 day TH17 differentiation period.

Data set [2] deals with T1, RORγ LBD (Homo sapiens (Human), UniProt P51449). Kind of data set: TR-FRET co-activator D22 interaction with RORγ LBD. The class given is biochemical. An excerpt:
(§3) The Time-Resolved Fluorescence Resonance Energy Transfer (TR-FRET) assay kit (Life Technologies) was used to measure compound efficacy to disrupt or enhance ligand-mediated interaction of the co-activator and co-repressor peptides with the purified GST-tagged (i) RORγ LBD or (ii) […]. The RORγ LBD and RORα LBD each have a basal level of interaction with the co-activator D22 or co-repressor NCoR1-D2 in the absence of ligand, thus it is possible to identify compounds that inhibit or induce RORγ and/or RORα co-activator/co-repressor interactions, thus determining RORα, RORγ, or RORα/RORγ compound selectivity. The assay was performed as per manufacturer's instructions and TR-FRET was assessed 2 and 20 hours post-assay initiation. Compounds were identified to (i) have no impact on either co-activator displacement or […] from the assessed LBD (ii) promote co-activator displacement from the assessed LBD (iii) promote co-repressor recruitment to the assessed LBD or (iv) concurrently promote co-activator displacement from the assessed LBD and co-repressor recruitment to the assessed LBD.
A general note: TR-FRET usually uses a lanthanide donor and a delayed reading to cut background.

In data set [3] the target is T1, RORγ LBD. In words: TR-FRET co-repressor NCoR1-D2 interaction with RORγ LBD. The class given is biochemical.
Description: as §3

The target of data set [4] is T2, RORα LBD (Homo sapiens (Human), UniProt P35398). In words: TR-FRET co-activator D22 interaction with RORα LBD. The class given is biochemical.
T2 sequence (P35398 272-510): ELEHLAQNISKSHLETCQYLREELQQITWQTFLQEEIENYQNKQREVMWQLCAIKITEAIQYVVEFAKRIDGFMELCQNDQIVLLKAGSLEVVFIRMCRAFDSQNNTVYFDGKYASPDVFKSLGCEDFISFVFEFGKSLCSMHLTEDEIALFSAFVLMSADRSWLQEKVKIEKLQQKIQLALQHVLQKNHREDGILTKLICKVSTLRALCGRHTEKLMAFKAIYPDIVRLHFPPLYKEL
Description: as §3

In data set [5] the target is T2, RORα LBD. Kind of data set: TR-FRET co-repressor NCoR1-D2 interaction with RORα LBD. The class given is biochemical.
Description: as §3

Setting [6] is: 2 hr, read-out: RORγ EC50 D22 co-activator displacement 2 hr.
[7] abbreviates: 20 hr, read-out: RORγ EC50 D22 co-activator displacement 20 hr.
Where [8] appears, read: 2 hr, read-out: RORγ EC50 NCoR1-D2 co-repressor recruitment 2 hr.
The mark [9] stands for this setting: 20 hr, read-out: RORγ EC50 NCoR1-D2 co-repressor recruitment 20 hr.
The mark [10] stands for this setting: 2 hr, read-out: RORα EC50 D22 co-activator displacement 2 hr.
[11] abbreviates: 20 hr, read-out: RORα EC50 D22 co-activator displacement 20 hr.
[12] abbreviates: 2 hr, read-out: RORα EC50 NCoR1-D2 co-repressor recruitment 2 hr.
[13] abbreviates: 20 hr, read-out: RORα EC50 NCoR1-D2 co-repressor recruitment 20 hr.
The mark [14] stands for this setting: 2 hr, co-activator recruitment (π), read-out: RORγ EC50 D22 2 hr (demonstrates co-activator recruitment).

pEC50, pIC50: −log10 of the molar value. Some results are limits rather than exact numbers.

What is called pIC50 is the negative decadic logarithm of the IC50, by convention in mol/L. In general, viability refers to the share of living cells, or the viability signal relative to a control. A word on the pEC50: it is the EC50 on a negative log10 scale, so that one unit is a factor of ten.

T1 sequence (P51449 269-508): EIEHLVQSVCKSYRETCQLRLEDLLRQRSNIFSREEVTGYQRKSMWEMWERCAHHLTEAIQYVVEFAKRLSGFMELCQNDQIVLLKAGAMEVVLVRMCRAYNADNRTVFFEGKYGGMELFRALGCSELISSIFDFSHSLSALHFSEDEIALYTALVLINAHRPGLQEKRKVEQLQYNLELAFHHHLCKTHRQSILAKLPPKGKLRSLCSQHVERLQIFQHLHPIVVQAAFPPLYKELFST

Regarding `CC(=O)Nc1ccc2c(c1)CCN2Cc1ccc(C(F)(F)F)cc1` [Example 7, N-(1-(4-(trifluoromethyl)benzyl)indolin-5-yl)acetamide], the pIC50 in the data set with IL-17A, in the data set with IL-17F and with IL-22 was more than 5.00 in each case. For the same compound, in [1], the viability is more than 80%. Also, the inhibition at 3 µM in the data set with TH17 cells is not above 50%. Further, the pEC50 is less than 4.52 at RORγ LBD [2] (setting [6]); more than 4.52 at RORγ LBD [2] (setting [7]); less than 4.52 at RORγ LBD [3] (setting [8]); less than 4.52 on RORγ LBD [3] (setting [9]); less than 4.52 at RORα LBD [4] (setting [10]); less than 4.52 on RORα LBD [4] (setting [11]). Besides, the pEC50 at RORα LBD [5] (setting [12]) and at RORα LBD [5] (setting [13]) was less than 4.52 throughout.
Consider `CC(=O)Nc1ccc2c(c1)CCN2Cc1ccc(C(C)C)cc1` [Example 8, N-(1-(4-isopropylbenzyl)indolin-5-yl)acetamide], for which the pIC50 in the data set with IL-17A, in the data set on IL-17F and in the data set with IL-22 was more than 5.00 each time. Also, the viability in data set [1] was more than 80%. For the same compound, the inhibition at 3 µM with TH17 cells is not above 50%. The pEC50 on RORγ LBD [2] (setting [6]) was more than 4.52; at RORγ LBD [2] (setting [7]) it was more than 4.52; at RORγ LBD [3] (setting [8]) it was less than 4.52; on RORγ LBD [3] (setting [9]), less than 4.52; at RORα LBD [4] (setting [10]), less than 4.52; at RORα LBD [4] (setting [11]) it was less than 4.52. Also, the pEC50 on RORα LBD [5] (setting [12]) and at RORα LBD [5] (setting [13]) was less than 4.52 in each case.
Turning to `CC(=O)Nc1ccc2c(c1)CCN2Cc1ccc(-c2cc(C)n[nH]2)cc1` [Example 9, N-(1-(4-(3-methyl-1H-pyrazol-5-yl)benzyl)indolin-5-yl)acetamide], the pIC50 in the data set on IL-17A, with IL-17F and in the data set with IL-22 was more than 5.00 each time. The viability in [1] was more than 80%. In addition, the pEC50 on RORγ LBD [2] (setting [6]), at RORγ LBD [2] (setting [7]), at RORγ LBD [3] (setting [8]), at RORγ LBD [3] (setting [9]), on RORα LBD [4] (setting [10]) and on RORα LBD [4] (setting [11]) was less than 4.52 throughout. For the same compound, the pEC50 at RORα LBD [5] (setting [12]) and at RORα LBD [5] (setting [13]) was less than 4.52 each time.
Regarding `CC(=O)Nc1ccc2c(c1)CCN2Cc1ccc(C2(O)CCC2)cc1` [Example 10, N-(1-(4-(1-hydroxycyclobutyl)benzyl)indolin-5-yl)acetamide], the figures for the pIC50 with IL-17A, in the data set with IL-17F and with IL-22 were less than 5.00, less than 5.00 and more than 5.00, respectively. Moreover, in data set [1], the viability was more than 80%. Moreover, the pEC50 on RORγ LBD [2] (setting [6]) is less than 4.52; on RORγ LBD [2] (setting [7]), less than 4.52; at RORγ LBD [3] (setting [8]), less than 4.52; at RORγ LBD [3] (setting [9]) it was less than 4.52; on RORα LBD [4] (setting [10]), more than 4.52; on RORα LBD [4] (setting [11]), more than 4.52. The pEC50 at RORα LBD [5] (setting [12]) and on RORα LBD [5] (setting [13]) was less than 4.52 each time.
In the case of `CC(=O)Nc1ccc2c(c1)CCN2Cc1ccc(C(N)=O)cc1` [Example 11, 4-((5-acetamidoindolin-1-yl)methyl)benzamide], the pIC50 in the data set with IL-17A, with IL-17F and in the data set with IL-22 was less than 5.00 in each case. Also, in [1], the viability was more than 80%. In the data set with TH17 cells, the inhibition at 3 µM was not above 50%. Also, the pEC50 is more than 4.52 at RORγ LBD [2] (setting [14]); less than 4.52 at RORγ LBD [2] (setting [7]); less than 4.52 on RORγ LBD [3] (setting [8]); less than 4.52 at RORγ LBD [3] (setting [9]); more than 4.52 on RORα LBD [4] (2 hr, co-activator recruitment (π), read-out: RORα EC50 D22 2 hr (demonstrates co-activator recruitment)); more than 4.52 at RORα LBD [4] (20 hr, co-activator recruitment (π), read-out: RORα EC50 D22 20 hr (demonstrates co-activator recruitment)). Further, the pEC50 at RORα LBD [5] (setting [12]) and at RORα LBD [5] (setting [13]) was less than 4.52 throughout.
Turning to `CC(=O)Nc1ccc2c(c1)CCN2Cc1ccc(C(=O)N(C)c2ccccc2)cc1` [Example 14, 4-((5-acetamidoindolin-1-yl)methyl)-N-methyl-N-phenylbenzamide], the pIC50 with IL-17A, in the data set with IL-17F and in the data set on IL-22 was more than 5.00 throughout. The viability in [1] is more than 80%. The pEC50 on RORγ LBD [2] (setting [14]) is more than 4.52; at RORγ LBD [2] (setting [7]), less than 4.52; on RORγ LBD [3] (setting [8]), less than 4.52; at RORγ LBD [3] (setting [9]), less than 4.52; at RORα LBD [4] (setting [10]), less than 4.52; at RORα LBD [4] (setting [11]), less than 4.52. Also, the pEC50 on RORα LBD [5] (setting [12]) and on RORα LBD [5] (setting [13]) was less than 4.52 in each case.

The values are drawn from patent US9321750B2, “ROR modulators and their uses” (INNOV17 LLC, priority 2012, dated 2016).
